The values that follow come from article PMC10584170, “Machine learning-based phenotypic imaging to characterise the targetable biology of Plasmodium falciparum male gametocytes for the development of transmission-blocking antimalarials” (PLOS Pathogens, 2023).

A word on the IC50: it is the midpoint of a concentration-inhibition curve.

For data set [1], the system named is P. falciparum male gametocytes. In words: PhIDDLI screening assay, 24 h preincubation at 10xIC50, tubulin/DAPI imaging of male gametogenesis. The data set is classed as cell-based, Plasmodium falciparum NF54. The settings on record: approximately 10xIC50, fixed 20 min post-induction. How it is done: Mature gametocytes were treated for 24h with approximately 10xIC50 of test compounds or DMSO as a solvent control. Male gametogenesis was then induced by lowering the temperature from 37°C to ~20°C and adding xanthurenic acid. 20min later, when male gametogenesis (exflagellation) could be expected to peak, all samples were fixed. A sample of non-induced DMSO-treated gametocytes was fixed with 4% paraformaldehyde to provide an unactivated gametocyte control for comparison. The cells were then processed for immunofluorescence using an antibody against alpha-tubulin II and DNA staining with 4′,6-diamidino-2-phenylindole (DAPI) and visualised by fluorescence microscopy. Tubulin-bright cells from each treated sample were imaged and captured at random.
Cells were identified using a semi-automated pipeline established in the ICY BioImageAnalysis (https://icy.bioimageanalysis.org/) protocols module. Images and accompanying bounding boxes representing the outlines of identified cells were then passed to the PhIDDLI pipeline. PhIDDLI consists of several open source image processing and AI/ML modules connected for seamless processing, clustering and visualisation of cellular phenotypes (Fig 3A). […] To focus on the overall cellular phenotype rather than potentially confounding variable immunostaining intensities between experimental replicates, cells were transformed so that the range of staining intensities for each channel were normalised to fall between a 0–255 pixel intensity value. Then, using the Albumentations module (https://albumentations.ai/) to augment the dataset and control for cells in different orientations, each extracted cell image was rotated 90, 180 and 270 degrees and mirrored so that each cell was represented eight different times in the dataset. The augmented images were then passed to the EffcientNet-B1 module (https://github.com/tensorflow/tpu/tree/master/models/official/efficientnet) (a pretrained neural network developed for image processing) which extracted 1,000 distinct numerical features from each individual cell image. The EfficientNet-B1 was selected from amongst the other EfficientNet models due to its input image size (240 pixels) best matching the size of the individual cell images in the dataset, therefore ensuring maximal input data whilst allowing acceptable computation time on a desktop computer. […]
Mature gametocyte cultures were divided into 100 μl “microcultures” in pre-warmed 1.5 ml tubes also containing 100 μl complete culture medium with test compounds at a final concentration of 10xIC50 or 0.5% DMSO as a solvent control. Tubes were gassed and incubated at 37°C for 24 h. The entire compound library was screened once, spread over four different experiments, each with two DMSO control tubes. An 8% formaldehyde solution was prepared by diluting 16% methanol-free formaldehyde in an equal volume of phosphate-buffered saline (PBS). In each experiment, one DMSO control tube was fixed with equal volume of 8% formaldehyde (4% final concentration) at 37°C to provide an “unactivated” gametocyte control. Gametogenesis was then triggered in the remaining DMSO control tube and all compound tubes by adding 10 μl ookinete medium, and they were immediately incubated at room temperature. After 20 min (when exflagellation is maximal), all remaining tubes were fixed for 30 min.
100 μl of the fixed cell suspensions were added to wells of a 24 well plate containing 1ml PBS and a poly-l-lysine-coated glass coverslip.

For data set [2], the system named is P. falciparum female gametocytes. Briefly: P. falciparum Dual Gamete Formation Assay (PfDGFA), female readout (Pfs25-positive female gametes). It counts as cell-based, Plasmodium falciparum NF54. Conditions: for IC50: this study, read-out: Pf DGFA IC50 FEM. A digest of the protocol:
(§1)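 Day-14 NF54 gametocytes were incubated with compound for 24 h at 37°C under 1% O2/3% CO2/96% N2. Gametogenesis was triggered with ookinete medium (0.1 μM xanthurenic acid) plus Cy3-anti-Pfs25, and exflagellation was imaged by brightfield after cooling to 4°C then 28°C. Females were imaged by Pfs25 fluorescence 24 h later at 28°C.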

The subject of data set [3] is HepG2 cells. The settings on record: cited from earlier work.
Data set [4] has as its system P. falciparum male gametocytes. In words: PhIDDLI timecourse assay, compound added at timepoints after triggering male gametogenesis. It counts as cell-based, Plasmodium falciparum NF54. Conditions: for impact on exflagellation: compound added concurrent with triggering gametogenesis or at any other point. The method, then: To gain greater understanding of their activity, selected molecules displaying different inhibition phenotypes in the initial screen were re-tested. Rather than subjecting gametocytes to a 24h preincubation prior to inducing gametogenesis, compounds were added at varying timepoints after triggering male gametogenesis. Samples were then fixed 20 min post-induction, imaged and analysed similarly using the PhIDDLI pipeline.
Alternatively, if compound action over time was to be assessed, 1.5ml tubes with appropriate dilutions of test compounds were prepared for each timepoint. Gametogenesis was then triggered in the mature gametocyte culture with ookinete medium and temperature decrease from 37°C. At appropriate times, 200 μl of triggered culture was sampled and mixed with test compound. All samples were then allowed to continue gametogenesis and fixed as described previously with paraformaldehyde after 20 min (when a DMSO-treated sample could be expected to be exflagellating).
100 μl of the fixed cell suspensions were added to wells of a 24 well plate containing 1ml PBS and a poly-l-lysine-coated glass coverslip. Cells were allowed to settle and adhere to the coverslip overnight at 4°C before coverslips were transferred to a hydrophobic membrane (Parafilm) for immunofluorescence staining in a humidified, dark box. Cells were permeabilised with 0.1% Triton-X100 in PBS for 10 min before washing in PBS three times. Non-specific binding was blocked by incubating coverslips with PBS + 10% fetal bovine serum (FBS) (blocking buffer) for 1 h. Gametocytes and microgametes were visualised by labelling with an anti-alpha tubulin antibody (raised from chicken embryo brain tubulin but cross-reacts with many other species) (clone DM1A (Sigma)) 1:500 dilution in blocking buffer for 1 h, washed as before, and then stained with an anti-mouse Alexa488 secondary antibody (Thermo-Fisher) 1:1,000 dilution in blocking buffer for a further 1 h. After a final series of washes, the coverslips were mounted on glass slides with VectaShield mountant (Vector Laboratories) containing 4′,6-diamidino-2-phenylindole (DAPI) to visualise cellular DNA.
All slides were imaged using a Nikon Ti fluorescence microscope using an x100 oil objective and 1.5x zoom. For each sample, tubulin-postive, DAPI-positive stained gametocytes/gametes were imaged at random. Z-stack images with 0.3μm slices were captured for each field of view and images deconvolved and transformed by maximum intensity projection within the Nikon NIS Elements software. Within raw images, cells were initially identified by an automated analysis pipeline developed in ICY Bioimage Analysis based upon the intensity of the tubulin staining captured which assigns a region of interest (ROI) around each cell. All ROIs were reviewed by a trained operator and adjusted if necessary to reflect the true outline of the cell (for example if two cells touching had been allocated the same ROI). Raw images contained between 1 and 8 extractable cells.
Code for the PhIDDLI pipeline was written in Python 3.8 and executed by command line within a 64-bit Ubuntu virtual machine running within Oracle VM VirtualBox 6.1. […] Principle component analysis of compound phenotypes (Fig 5) was performed using ClustViz (https://biit.cs.ut.ee/clustvis/) using ln(x+1) transformation, and k-means clustering of the resultant PCA data was coded in R and executed in R Studio version 1.1.456 to identify optimum cluster using the elbow method.

Data set [5] concerns P. falciparum gametocytes. Details: method as in Almela et al 2015. Conditions: ref Almela et al 2015; read-out: Pf Gametocyte viability (ATP) GC-ATP IC50; cited from earlier work.
The subject of data set [6] is P. falciparum male gametocytes. Briefly: P. falciparum Dual Gamete Formation Assay (PfDGFA), male readout (exflagellation). Conditions: for IC50: this study, read-out: Pf DGFA IC50 MALE. The data set is classed as cell-based, Plasmodium falciparum NF54. In short, it runs like this:
as §1

Data set [7] relates to P. falciparum gametocytes. In words: P. falciparum Gametocyte Viability ATP Assay (PfGCT). It counts as cell-based, Plasmodium falciparum. Conditions: Mean TOX HepG2 over GC-ATP IC50; GREEN = >10-fold; RED = <10-fold.
Data set [8] deals with HepG2 cells. Briefly: HepG2 cytotoxicity counter-screen. The settings on record: mean of the HepG2 TOX50 values. A general note: The purpose of a counterscreen is to sort out artefacts and off-target activity.
In data set [9] the test system is P. falciparum female gametocytes. Briefly: P. falciparum Female Gametocyte Activation Assay (PfFGAA). It counts as cell-based, Plasmodium falciparum. The settings on record: Mean TOX HepG2 over FGAA IC50; GREEN = >10-fold; RED = <10-fold.
The test system is the same in data set [10]. Details: method as in Miguel-Blanco et al 2017. Conditions: ref Miguel-Blanco et al 2017; read-out: Pf female gametogenesis FGAA IC50; cited from earlier work.
The test system of data set [11] is P. berghei ookinete development. In words: P. berghei Ookinete Development Assay (PbODA). It counts as cell-based, Plasmodium berghei. The settings on record: Mean TOX HepG2 over Pb ODA value; GREEN = >10-fold; RED = <10-fold.

Where two headings read alike, the source gives them in different places.

With `O=S(=O)(NCC1(O)CCOc2ccccc21)c1ccc(Br)s1` (stereo not drawn) [DDD01035881, reference compound], the “Cellular phenotype of male gametocytes” value in [1] was “arrested male gametogenesis late”.
Regarding `COc1ccc2nc3cc(Cl)ccc3c(NCCCCNc3c4ccc(Cl)cc4nc4ccc(OC)cc34)c2c1` [TC02], the “Cytotox ratio Pf Female” value in data set [2] turned out to be 22.1. Besides, the figures for the IC50 in data set [2], in data set [5] and in data set [6] were 0.38 µM, 0.2 µM and 0.38 µM, respectively. Further, the “GC-ATP TOX50 HepG2” value in data set [3] is recorded as 14.47 µM. The impact on exflagellation entry in data set [4] is listed as “little-to-no impact”. The “Cytotox ratio Pf Male” value in data set [6] was determined as 22.1. In addition, in [7], the “Cytotox ratio Pf GC-ATP” value was determined as 42.0. The “Mean TOX” value in data set [8] turned out to be 8.39 µM.
As for `CC(C)(C)c1ccc(-c2nc3c(ccc4nc(N)nc(N)c43)[nH]2)cc1.Cl` [TC05], in data set [2], the “Cytotox ratio Pf Female” value was found to be 3.2 and the IC50 was 0.97 µM. Besides, in data set [3], the “FGAA TOX50 HepG2” value is 2.12 µM and the “GC-ATP TOX50 HepG2” value is listed as 3.85 µM. Also, the impact on exflagellation entry in [4] is recorded as “little-to-no impact”. Moreover, the IC50 in [5] was 0.21 µM. Also, in data set [6], the “Cytotox ratio Pf Male” value stood at 17.1 and the IC50 is 0.18 µM. For the same compound, in data set [7], the “Cytotox ratio Pf GC-ATP” value is 14.6. In addition, in data set [9], the “Cytotox ratio Pf FGAA” value was determined as 11.8. Moreover, the “Mean TOX” value in data set [8] is recorded as 3.07 µM. The IC50 in data set [10] is 0.26 µM.
Turning to `O=C(c1ccc([N+](=O)[O-])o1)N1CCC(Cc2ccc(C(F)(F)F)cc2)CC1` [TC15], in data set [2], the “Cytotox ratio Pf Female” value amounted to 52.7 and the IC50 came to 0.44 µM. Further, in [3], the “FGAA TOX50 HepG2” value is reported as 27.05 µM and the “GC-ATP TOX50 HepG2” value is listed as 14.11 µM. For the same compound, the half-maximal inhibitory concentration (IC50) in data set [5] is 0.26 µM. In data set [6], the “Cytotox ratio Pf Male” value is given as 58.0 and the IC50 amounted to 0.4 µM. Also, the “Cytotox ratio Pf GC-ATP” value in [7] came to 89.2. In data set [9], the “Cytotox ratio Pf FGAA” value is given as 145.0. The “Mean TOX” value in data set [8] turned out to be 23.20 µM. Also, in [10], the IC50 was 0.16 µM. For the same compound, in data set [1], the “Cellular phenotype of male gametocytes” value is “retain their falciform shape but have a condensed mass of unreplicated DNA and several thin microtubule structures”.
Take `CCN(CC)CCN(Cc1ccc(-c2ccc(C(F)(F)F)cc2)cc1)C(=O)Cn1cc(Cc2cnn(C)c2)c(=O)nc1/C=C/c1cccc(F)c1F.O=C(O)C(O)C(O)C(=O)O` [TC18]: the “Cytotox ratio Pf Female” value in data set [2] is reported as 3.0. Moreover, the concentration for half-maximal inhibition (IC50) is 4.1 µM in data set [2], 0.17 µM in data set [5], 0.63 µM in data set [6] and 0.87 µM in [10]. In addition, in data set [3], the “FGAA TOX50 HepG2” value is listed as 9.69 µM. In data set [3], the “GC-ATP TOX50 HepG2” value is recorded as 14.4 µM. Besides, the “Cytotox ratio Pf Male” value in data set [6] is 19.6. In data set [7], the “Cytotox ratio Pf GC-ATP” value was 72.7. For the same compound, in data set [9], the “Cytotox ratio Pf FGAA” value turned out to be 14.2. Besides, the “Mean TOX” value in [8] stood at 12.35 µM. For the same compound, the “Cellular phenotype of male gametocytes” value in data set [1] was “retain their falciform shape but have a condensed mass of unreplicated DNA and several thin microtubule structures”.
In the case of `Fc1ccc2[nH]c(-c3ccc(-c4ccc(CNCCN5CCNCC5)cc4)s3)nc2c1.O=C(O)C(F)(F)F` [TC23], in data set [2], the “Cytotox ratio Pf Female” value turned out to be 3.4 and the IC50 came out at 7.18 µM. Further, the “GC-ATP TOX50 HepG2” value in data set [3] is 25 µM. The compound also showed a cells exflagellating in data set [4] (compound added concurrent with triggering gametogenesis, DMSO control 43.7%) of 19.8%. Further, in data set [5], the IC50 is 0.53 µM. In addition, in data set [6], the “Cytotox ratio Pf Male” value came out at 12.4 and the IC50 stood at 1.97 µM. The “Cytotox ratio Pf GC-ATP” value in [7] amounted to 46.3. In addition, the “Mean TOX” value in data set [8] is given as 24.53 µM.
With `COc1cc(-c2nc(C(C)(C)CN)[nH]c2-c2ccncc2)ccc1Br.Cl` [TC27], in data set [2], the “Cytotox ratio Pf Female” value came out at 25.9 and the IC50 was found to be 1.61 µM. For the same compound, the “ODA TOX50 HepG2” value in data set [3] (HepG2 value reported with the ODA screen, ref Delves et al 2019) was 39.811 µM. Moreover, the “Cytotox ratio Pb Ookinete” value in [11] is reported as 31592.6. Moreover, in data set [6], the “Cytotox ratio Pf Male” value stood at 23.6 and the IC50 was found to be 1.77 µM. Further, in data set [8], the “Mean TOX” value is 41.74 µM. The “Cellular phenotype of male gametocytes” value in [1] is “unactivated phenotype consistent with total arrest of gametogenesis”.
